This data set relates to rodent lifetime carcinogenesis bioassay, tumor incidence TD50. Description: chronic cancer bioassays in animals – CPDB, compiled studies (AID 1745844).

“And” between values parts separate entries of the source, which are not always exact repeats. Equal entries are not always repeated. The source made the active and inactive calls. How the calls were made is not given here.

Usually TD50 stands for the 50% point of the dose-response relation for the toxic effect studied. Regarding `O=P(OCCCl)(OCCCl)OCCCl`, the TD50 (mouse, strain B6C3F1, females, by gavage, site: Harderian gland, lesion: adenoma + carcinoma, dosed 104 weeks, study length 104 weeks) amounted to 1390 mg/kg/day; the TD50 (mouse, strain B6C3F1, females, by gavage, site: any site (literature study), lesion: several types, types named in the paper, dosed 104 weeks, study length 104 weeks) worked out at 610 mg/kg/day; the TD50 (mouse, strain B6C3F1, females, by gavage, site: liver, lesion: hepatocellular adenoma + hepatocellular carcinoma + neoplastic nodule, dosed 104 weeks, study length 104 weeks) was found to be 2870 mg/kg/day; the TD50 (mouse, strain B6C3F1, females, by gavage, site: lung, lesion: alveolar/bronchiolar adenoma + alveolar/bronchiolar carcinoma, dosed 104 weeks, study length 104 weeks) was 4380 mg/kg/day; the TD50 (mouse, strain B6C3F1, females, by gavage, site: mammary gland, lesion: adenocarcinoma, dosed 104 weeks, study length 104 weeks) was found to be 3050 mg/kg/day; the TD50 (mouse, strain B6C3F1, females, by gavage, site: uterus, lesion: endometrial stromal polyp, dosed 104 weeks, study length 104 weeks) came to 2420 mg/kg/day. Moreover, the TD50 by setting is: (mouse, strain B6C3F1, males, by gavage, site: any site (literature study), lesion: several types, types named in the paper, dosed 104 weeks, study length 104 weeks) 807 mg/kg/day; (mouse, strain B6C3F1, males, by gavage, site: kidney, lesion: tubule adenoma + tubule carcinoma, dosed 104 weeks, study length 104 weeks) 3510 mg/kg/day and 6810 mg/kg/day; (mouse, strain B6C3F1, males, by gavage, site: kidney, lesion: tubule carcinoma, dosed 104 weeks, study length 104 weeks) 8450 mg/kg/day; (mouse, strain B6C3F1, males, by gavage, site: liver, lesion: hepatocellular adenoma + hepatocellular carcinoma + neoplastic nodule, dosed 104 weeks, study length 104 weeks) 569 mg/kg/day; (mouse, strain B6C3F1, males, by gavage, site: lung, lesion: alveolar/bronchiolar adenoma + alveolar/bronchiolar carcinoma, dosed 104 weeks, study length 104 weeks) 61700 mg/kg/day; (mouse, strain Slc:ddY, females, in feed, site: all sites, lesion: leukemia, dosed 78 weeks, study length 78 weeks) 4790 mg/kg/day. The TD50 is 880 mg/kg/day (mouse, strain Slc:ddY, females, in feed, site: any site (literature study), lesion: several types, types named in the paper, dosed 78 weeks, study length 78 weeks); 5500 mg/kg/day (mouse, strain Slc:ddY, females, in feed, site: forestomach, lesion: several types, types named in the paper, dosed 78 weeks, study length 78 weeks); 8970 mg/kg/day (mouse, strain Slc:ddY, females, in feed, site: forestomach, lesion: squamous-cell carcinoma, dosed 78 weeks, study length 78 weeks); 23000 mg/kg/day (mouse, strain Slc:ddY, females, in feed, site: liver, lesion: hepatocellular adenoma, dosed 78 weeks, study length 78 weeks); 185 mg/kg/day (mouse, strain Slc:ddY, males, in feed, site: any site (literature study), lesion: several types, types named in the paper, dosed 78 weeks, study length 78 weeks); 844 mg/kg/day (mouse, strain Slc:ddY, males, in feed, site: kidney, lesion: renal-cell carcinoma, dosed 78 weeks, study length 78 weeks). Besides, the TD50 was 539 mg/kg/day (mouse, strain Slc:ddY, males, in feed, site: kidney, lesion: several types, types named in the paper, dosed 78 weeks, study length 78 weeks); 28800 mg/kg/day (mouse, strain Slc:ddY, males, in feed, site: liver, lesion: hepatocellular carcinoma, dosed 78 weeks, study length 78 weeks); 1690 mg/kg/day (mouse, strain Slc:ddY, males, in feed, site: liver, lesion: several types, types named in the paper, dosed 78 weeks, study length 78 weeks); 39.9 mg/kg/day (rat, strain Fischer 344, females, by gavage, site: any site (literature study), lesion: several types, types named in the paper, dosed 104 weeks, study length 104 weeks); 187 mg/kg/day (rat, strain Fischer 344, females, by gavage, site: kidney, lesion: tubule adenoma, dosed 104 weeks, study length 104 weeks); 90.2 mg/kg/day (rat, strain Fischer 344, females, by gavage, site: multiple organs, lesion: mononuclear-cell leukemia, dosed 104 weeks, study length 104 weeks). Besides, the TD50 by setting is: (rat, strain Fischer 344, females, by gavage, site: thyroid gland, lesion: follicular-cell adenoma + follicular-cell carcinoma, dosed 104 weeks, study length 104 weeks) 203 mg/kg/day; (rat, strain Fischer 344, females, by gavage, site: thyroid gland, lesion: follicular-cell carcinoma, dosed 104 weeks, study length 104 weeks) 280 mg/kg/day; (rat, strain Fischer 344, females, by gavage, site: uterus, lesion: endometrial stromal sarcoma, dosed 104 weeks, study length 104 weeks) 589 mg/kg/day; (rat, strain Fischer 344, males, by gavage, site: adrenal medulla, lesion: pheochromocytoma benign, bilateral + pheochromocytoma, benign, dosed 104 weeks, study length 104 weeks) 49.5 mg/kg/day; (rat, strain Fischer 344, males, by gavage, site: any site (literature study), lesion: several types, types named in the paper, dosed 104 weeks, study length 104 weeks) 56.8 mg/kg/day; (rat, strain Fischer 344, males, by gavage, site: brain + cerebellum, meninges, lesion: granular-cell tumor, benign, dosed 104 weeks, study length 104 weeks) 705 mg/kg/day. Further, the TD50 by setting is: (rat, strain Fischer 344, males, by gavage, site: kidney, lesion: tubule adenoma + tubule carcinoma, dosed 104 weeks, study length 104 weeks) 56.4 mg/kg/day; (rat, strain Fischer 344, males, by gavage, site: kidney, lesion: tubule adenoma, dosed 104 weeks, study length 104 weeks) 56.9 mg/kg/day; (rat, strain Fischer 344, males, by gavage, site: kidney, lesion: tubule carcinoma, dosed 104 weeks, study length 104 weeks) 8400 mg/kg/day; (rat, strain Fischer 344, males, by gavage, site: liver, lesion: hepatocellular adenoma + hepatocellular carcinoma + neoplastic nodule, dosed 104 weeks, study length 104 weeks) 633 mg/kg/day; (rat, strain Fischer 344, males, by gavage, site: multiple organs, lesion: mononuclear-cell leukemia, dosed 104 weeks, study length 104 weeks) 107 mg/kg/day; (rat, strain Fischer 344, males, by gavage, site: subcutaneous tissue, lesion: fibroma, dosed 104 weeks, study length 104 weeks) 246 mg/kg/day. The TD50 (rat, strain Fischer 344, males, by gavage, site: thyroid gland, lesion: follicular-cell adenoma + follicular-cell carcinoma, dosed 104 weeks, study length 104 weeks) turned out to be 338 mg/kg/day.

For `CCc1cc(C(N)=S)ccn1`, the TD50 reads like this: (mouse, strain B6C3F1, females, in feed, site: any site (literature study), lesion: several types, types named in the paper, dosed 78 weeks, study length 104 weeks) 450 mg/kg/day (inactive); (mouse, strain BALB/c, females, by gavage, site: liver, lesion: papillary carcinoma, dosed 50 weeks, study length 69 weeks) 240 mg/kg/day (inactive); (mouse, strain BALB/c, females, by gavage, site: lung, lesion: adenoma, dosed 50 weeks, study length 69 weeks) 124 mg/kg/day (inactive); (mouse, strain BALB/c, females, by gavage, site: thyroid gland, lesion: carcinoma, dosed 50 weeks, study length 69 weeks) 69.3 mg/kg/day; (rat, strain Fischer 344, females, in feed, site: liver, lesion: hepatocellular adenoma + hepatocellular carcinoma + neoplastic nodule, dosed 78 weeks, study length 104 weeks) 508 mg/kg/day; (rat, strain Fischer 344, males, in feed, site: liver, lesion: hepatocellular adenoma + hepatocellular carcinoma + neoplastic nodule, dosed 78 weeks, study length 103 weeks) 623 mg/kg/day. The carcinogen call (mouse, strain B6C3F1, males, in feed, site: any site (literature study), lesion: several types, types named in the paper, dosed 78 weeks, study length 104 weeks) is “negative (inactive)”; the carcinogen call (rat, strain Fischer 344, females, in feed, site: any site (literature study), lesion: several types, types named in the paper, dosed 78 weeks, study length 104 weeks) is “negative (inactive)”; the carcinogen call (rat, strain Fischer 344, males, in feed, site: any site (literature study), lesion: several types, types named in the paper, dosed 78 weeks, study length 103 weeks) is “negative (inactive)”.

On to `C#CC(OC(N)=O)(c1ccccc1)c1ccc(Cl)cc1` (stereo unspecified), for which the TD50 is 3.88 mg/kg/day (rat, strain Harlan, males, in feed, site: any site (literature study), lesion: several types, types named in the paper, dosed 72 weeks, study length 94 weeks); 462 mg/kg/day (rat, strain Harlan, males, in feed, site: brain, lesion: several types, types named in the paper, dosed 72 weeks, study length 94 weeks); 24.9 mg/kg/day (rat, strain Harlan, males, in feed, site: duodenum, lesion: adenocarcinoma, dosed 72 weeks, study length 94 weeks); 8.78 mg/kg/day (rat, strain Harlan, males, in feed, site: jejunum, lesion: adenocarcinoma, dosed 72 weeks, study length 94 weeks); 58.5 mg/kg/day (rat, strain Harlan, males, in feed, site: liver, lesion: several types, types named in the paper, dosed 72 weeks, study length 94 weeks).

With `C=CCN(CC(C)=O)N=O`, the TD50 reads like this: (hamster, strain Syrian Golden, females, by gavage, site: liver, lesion: cholangiocarcinoma, dosed 40 weeks, study length 55 weeks) 21.2 mg/kg/day; (hamster, strain Syrian Golden, females, by gavage, site: liver, lesion: hepatocellular adenoma, dosed 40 weeks, study length 55 weeks) 4.87 mg/kg/day; (hamster, strain Syrian Golden, females, by gavage, site: liver, lesion: several types, types named in the paper, dosed 40 weeks, study length 55 weeks) 3.78 mg/kg/day; (hamster, strain Syrian Golden, females, by gavage, site: nasal mucosa, lesion: carcinoma, dosed 40 weeks, study length 55 weeks) 1.36 mg/kg/day; (hamster, strain Syrian Golden, females, by gavage, site: nasal mucosa, lesion: several types, types named in the paper, dosed 40 weeks, study length 55 weeks) 1.19 mg/kg/day; (rat, strain Fischer 344, females, in drinking water, site: esophagus, lesion: several types, types named in the paper, dosed 50 weeks, study length 85 weeks) 1.25 mg/kg/day. The TD50 (rat, strain Fischer 344, females, in drinking water, site: liver, lesion: hepatocellular carcinoma, dosed 50 weeks, study length 85 weeks) was 0.335 mg/kg/day.

For `[Cl][Fe]([Cl])[Cl]`, the TD50 was 505 mg/kg/day (inactive) (rat, strain F344/DuCrj, females, in drinking water, site: any site (literature study), lesion: one or several types, types not named, dosed 104 weeks, study length 112 weeks) and 8810 mg/kg/day (inactive) (rat, strain F344/DuCrj, males, in drinking water, site: liver, lesion: neoplastic nodule, dosed 104 weeks, study length 112 weeks). For the same compound, the carcinogen call was “negative (inactive)” (rat, strain F344/DuCrj, females, in drinking water, site: liver, lesion: neoplastic nodule, dosed 104 weeks, study length 112 weeks) and “negative (inactive)” (rat, strain F344/DuCrj, males, in drinking water, site: any site (literature study), lesion: one or several types, types not named, dosed 104 weeks, study length 112 weeks).

In the case of `CCN(CC)c1ccc2c(-c3ccc(S(=O)(=O)O)cc3S(=O)(=O)[O-])c3ccc(=[N+](CC)CC)cc-3oc2c1`, the TD50 is, setting by setting: (rat, strain F344/DuCrj, females, in feed, site: any site (literature study), lesion: several types, types named in the paper, dosed 106 weeks, study length 106 weeks) 4100 mg/kg/day (inactive); (rat, strain F344/DuCrj, males, in feed, site: any site (literature study), lesion: several types, types named in the paper, dosed 106 weeks, study length 106 weeks) 2350 mg/kg/day (inactive). The carcinogen call is “negative (inactive)” (rat, strain F344/DuCrj, females, in feed, site: liver, lesion: one or several types, types not named, dosed 106 weeks, study length 106 weeks) and “negative (inactive)” (rat, strain F344/DuCrj, males, in feed, site: liver, lesion: neoplastic nodule, dosed 106 weeks, study length 106 weeks).

On to `CN(C)c1ccc(C(=N)c2ccc(N(C)C)cc2)cc1`, for which the TD50 is, setting by setting: (mouse, strain CBA, females, in feed, site: liver, lesion: hepatoma, dosed 52 weeks, study length 99 weeks) 67.7 mg/kg/day; (mouse, strain CBA, males, in feed, site: liver, lesion: hepatoma, dosed 52 weeks, study length 79 weeks) 77.5 mg/kg/day; (mouse, strain albino, females, in feed, site: liver, lesion: hepatoma, dosed 52 weeks, study length 79 weeks) 94.3 mg/kg/day; (mouse, strain albino, males, in feed, site: liver, lesion: hepatoma, dosed 52 weeks, study length 84 weeks) 39.2 mg/kg/day; (rat, strain Wilmslow Wistar, males, in feed, site: liver, lesion: hepatoma, dosed 87 weeks, study length 125 weeks) 11 mg/kg/day.

Source of the values: PubChem BioAssay AID1745844 (Carcinogenic Potency Database (CPDB), 2022).
